Results reported in ChEMBL document CHEMBL4619707, “Synthesis and biological investigation of triazolopyridinone derivatives as potential multireceptor atypical antipsychotics” (Bioorg Med Chem Lett, 2020).
pEC50, pIC50: −log10 of the molar value. Values after ≈ are worked out from the molar mass of the structure shown. Active and inactive are the calls of the source. The rule behind the calls is not given here.

Target: Sodium-dependent serotonin transporter (Homo sapiens) (UniProt P31645)
Settings: 400 nM
Description: Antagonist activity at SERT receptor (unknown origin) at 400 nM by fluorescence based assay relative to control

Sodium-dependent serotonin transporter (Homo sapiens), sequence (P31645 whole entry, looked up): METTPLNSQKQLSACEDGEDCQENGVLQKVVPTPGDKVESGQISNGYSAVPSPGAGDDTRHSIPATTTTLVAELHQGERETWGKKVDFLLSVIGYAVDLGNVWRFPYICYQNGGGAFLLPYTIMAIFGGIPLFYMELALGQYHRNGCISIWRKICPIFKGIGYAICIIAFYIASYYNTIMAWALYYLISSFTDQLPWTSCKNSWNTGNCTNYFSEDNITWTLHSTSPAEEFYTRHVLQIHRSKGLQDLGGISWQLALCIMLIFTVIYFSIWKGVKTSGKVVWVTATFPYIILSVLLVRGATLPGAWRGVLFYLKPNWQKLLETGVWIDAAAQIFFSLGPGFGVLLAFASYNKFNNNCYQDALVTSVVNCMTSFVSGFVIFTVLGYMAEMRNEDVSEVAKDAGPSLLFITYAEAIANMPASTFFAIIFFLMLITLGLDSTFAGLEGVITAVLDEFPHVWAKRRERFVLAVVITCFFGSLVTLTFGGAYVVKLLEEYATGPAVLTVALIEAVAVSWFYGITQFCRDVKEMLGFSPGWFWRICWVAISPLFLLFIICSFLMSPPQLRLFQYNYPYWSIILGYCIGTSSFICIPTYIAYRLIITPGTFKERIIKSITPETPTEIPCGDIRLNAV

Compound	inhibition [%]
O=C1CCc2ccc(OCCCCN3CCN(c4cccc(Cl)c4Cl)CC3)cc2N1	21

Tested on: not listed separately
Test: Toxicity in mouse assessed as sedation by measuring spontaneous locomotor activity at 3 to 10 mg/kg, po
Format: organism-based
Settings: in vivo

Compound	Activity
O=c1n(CCCCN2CCN(c3cccc4sccc34)CC2)nc2ccccn12	Toxic

Tested on: Mus musculus
Test: Antipsychotic activity in po dosed ICR mouse assessed as inhibition of quipazine-induced head-twitch response administered with compound after quipazine administration measured for 15 mins
Format: functional, organism-based
Settings: not given

Compound	inhibition
O=c1n(CCCCN2CCN(c3cccc4sccc34)CC2)nc2ccccn12	Dose-dependent effect

Tested on: HEK293
Test: Cytotoxicity against human HEK293 cells assessed as reduction in cell viability
Format: cell-based
Settings: not given

Compound	IC50 [µg/mL]
O=c1ccc2ccc(OCCCCN3CCN(c4cccc5sccc45)CC3)cc2[nH]1 [BREXPIPRAZOLE]	19.1 (≈ 44.1 µM)
O=c1n(CCCCN2CCN(c3cccc4sccc34)CC2)nc2ccccn12	108 (≈ 265 µM)
Cc1nc2n(c(=O)c1CCN1CCC(c3noc4cc(F)ccc34)CC1)CCCC2 [RISPERIDONE]	> 600

Target: Histamine H1 receptor (Homo sapiens, UniProt P35367)
Sequence (P35367 whole entry): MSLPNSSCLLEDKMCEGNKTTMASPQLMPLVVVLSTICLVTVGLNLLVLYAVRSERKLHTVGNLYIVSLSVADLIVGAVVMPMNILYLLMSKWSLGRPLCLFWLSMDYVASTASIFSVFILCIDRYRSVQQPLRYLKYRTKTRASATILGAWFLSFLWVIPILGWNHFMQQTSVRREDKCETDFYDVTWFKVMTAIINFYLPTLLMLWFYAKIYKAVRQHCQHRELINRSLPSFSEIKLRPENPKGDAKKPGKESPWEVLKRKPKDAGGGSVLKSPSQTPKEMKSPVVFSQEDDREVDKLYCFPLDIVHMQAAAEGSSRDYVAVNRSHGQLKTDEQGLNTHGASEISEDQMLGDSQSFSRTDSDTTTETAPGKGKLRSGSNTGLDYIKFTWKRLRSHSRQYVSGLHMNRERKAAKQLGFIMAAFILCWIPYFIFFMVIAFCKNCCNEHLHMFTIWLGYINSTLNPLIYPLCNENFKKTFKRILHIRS
Test: Antagonist activity at H1 receptor (unknown origin)
Format: ADME
Settings: not given

Compound	pIC50
O=c1n(CCCCN2CCN(c3cccc4sccc34)CC2)nc2ccccn12	7.05
N#Cc1ccc2nn(CCCCN3CCN(c4cccc5sccc45)CC3)c(=O)n2c1	7.12

Target: Muscarinic acetylcholine receptor M3 (Homo sapiens, UniProt P20309)
Sequence (P20309 whole entry): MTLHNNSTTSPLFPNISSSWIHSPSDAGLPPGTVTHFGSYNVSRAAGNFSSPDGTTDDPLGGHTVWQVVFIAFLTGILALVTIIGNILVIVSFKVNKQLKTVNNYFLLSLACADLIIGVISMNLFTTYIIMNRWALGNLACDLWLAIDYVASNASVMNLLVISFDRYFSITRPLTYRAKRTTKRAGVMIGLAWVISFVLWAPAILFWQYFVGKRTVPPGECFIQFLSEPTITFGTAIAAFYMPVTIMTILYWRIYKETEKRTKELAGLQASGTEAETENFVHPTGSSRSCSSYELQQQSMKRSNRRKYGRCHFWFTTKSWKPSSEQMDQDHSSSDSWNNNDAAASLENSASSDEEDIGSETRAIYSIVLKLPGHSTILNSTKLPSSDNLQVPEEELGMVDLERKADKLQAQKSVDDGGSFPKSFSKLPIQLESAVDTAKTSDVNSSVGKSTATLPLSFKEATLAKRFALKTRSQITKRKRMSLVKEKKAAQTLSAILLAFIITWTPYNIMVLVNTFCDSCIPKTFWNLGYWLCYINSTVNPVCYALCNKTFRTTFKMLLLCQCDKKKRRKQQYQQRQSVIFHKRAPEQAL
Test: Antagonist activity at muscarinic M3 receptor (unknown origin)
Format: ADME
Settings: not given

Compound	pIC50
O=c1n(CCCCN2CCN(c3cccc4sccc34)CC2)nc2ccccn12	< 5.00
N#Cc1ccc2nn(CCCCN3CCN(c4cccc5sccc45)CC3)c(=O)n2c1	< 5.00
O=c1n(CCCCN2CCN(c3cccc4sccc34)CC2)nc2c(F)cccn12	< 5.00

Tested on: not listed separately
Test: Toxicity in mouse assessed as sedation by measuring spontaneous locomotor activity at 0.3 mg/kg, po
Format: organism-based
Settings: in vivo

Compound	Activity
O=c1n(CCCCN2CCN(c3cccc4sccc34)CC2)nc2ccccn12	Non-Toxic

Target: T1, 5-hydroxytryptamine receptor 1A (Homo sapiens, UniProt P08908)
T1 sequence (P08908 whole entry): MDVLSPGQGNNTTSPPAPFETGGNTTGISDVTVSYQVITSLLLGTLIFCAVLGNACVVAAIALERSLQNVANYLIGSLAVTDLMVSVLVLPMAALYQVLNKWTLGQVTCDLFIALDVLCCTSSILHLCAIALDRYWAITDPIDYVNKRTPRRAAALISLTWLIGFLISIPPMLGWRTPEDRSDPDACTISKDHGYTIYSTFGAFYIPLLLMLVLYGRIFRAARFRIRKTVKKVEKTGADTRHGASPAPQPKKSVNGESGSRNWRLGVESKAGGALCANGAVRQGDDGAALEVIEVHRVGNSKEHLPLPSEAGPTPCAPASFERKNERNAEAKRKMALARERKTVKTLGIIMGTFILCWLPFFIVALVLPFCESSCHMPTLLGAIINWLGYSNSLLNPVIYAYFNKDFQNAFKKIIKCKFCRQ
Test: Agonist activity at 5HT1A receptor (unknown origin) by calcium-dye based FLIPR assay
Format: functional
Settings: not given

Compound	pEC50
O=c1n(CCCCN2CCN(c3cccc4sccc34)CC2)nc2c(F)cc(F)cn12	8.92
COc1cccc2nn(CCCCN3CCN(c4cccc5sccc45)CC3)c(=O)n12	8.70
N#Cc1cccn2c(=O)n(CCCCN3CCN(c4cccc5sccc45)CC3)nc12	8.85
O=c1n(CCCCN2CCN(c3cccc4sccc34)CC2)nc2ccccn12	8.74 to 8.77
O=c1n(CCCCN2CCN(c3cccc4sccc34)CC2)nc2ccc(Cl)cn12	8.02
N#Cc1ccn2c(=O)n(CCCCN3CCN(c4cccc5sccc45)CC3)nc2c1	8.23
O=c1n(CCCCN2CCC(c3cc(F)cc4oncc34)CC2)nc2ccccn12	< 5.00
O=c1n(CCCCN2CCN(c3cccc4scnc34)CC2)nc2ccccn12	8.55
O=c1n(CCCCN2CCN(c3cccc4sccc34)CC2)nc2c(Cl)cccn12	7.92
O=c1n(CCCCN2CCN(c3cccc4sccc34)CC2)nc2c(Cl)cc(Cl)cn12	10.00
O=c1n(CCCCN2CCN(c3cccc4scnc34)CC2)nc2c(F)cccn12	10.00
COc1cccn2c(=O)n(CCCCN3CCN(c4cccc5sccc45)CC3)nc12	8.66
O=c1n(CCCCN2CCN(c3cccc4sccc34)CC2)nc2ccc(F)cn12	10.00
N#Cc1cccc2nn(CCCCN3CCN(c4cccc5sccc45)CC3)c(=O)n12	7.69
N#Cc1ccc2nn(CCCCN3CCN(c4cccc5sccc45)CC3)c(=O)n2c1	8.01
O=c1n(CCCCN2CCN(c3cccc4sccc34)CC2)nc2c(Br)cccn12	8.15
O=c1n(CCCCN2CCN(c3cccc4sc(F)cc34)CC2)nc2c(F)cccn12	8.82
O=c1n(CCCCN2CCN(c3cccc4sccc34)CC2)nc2c(F)cccn12	8.74

Target: Voltage-gated inwardly rectifying potassium channel KCNH2 (Homo sapiens, UniProt Q12809)
Sequence (Q12809 whole entry): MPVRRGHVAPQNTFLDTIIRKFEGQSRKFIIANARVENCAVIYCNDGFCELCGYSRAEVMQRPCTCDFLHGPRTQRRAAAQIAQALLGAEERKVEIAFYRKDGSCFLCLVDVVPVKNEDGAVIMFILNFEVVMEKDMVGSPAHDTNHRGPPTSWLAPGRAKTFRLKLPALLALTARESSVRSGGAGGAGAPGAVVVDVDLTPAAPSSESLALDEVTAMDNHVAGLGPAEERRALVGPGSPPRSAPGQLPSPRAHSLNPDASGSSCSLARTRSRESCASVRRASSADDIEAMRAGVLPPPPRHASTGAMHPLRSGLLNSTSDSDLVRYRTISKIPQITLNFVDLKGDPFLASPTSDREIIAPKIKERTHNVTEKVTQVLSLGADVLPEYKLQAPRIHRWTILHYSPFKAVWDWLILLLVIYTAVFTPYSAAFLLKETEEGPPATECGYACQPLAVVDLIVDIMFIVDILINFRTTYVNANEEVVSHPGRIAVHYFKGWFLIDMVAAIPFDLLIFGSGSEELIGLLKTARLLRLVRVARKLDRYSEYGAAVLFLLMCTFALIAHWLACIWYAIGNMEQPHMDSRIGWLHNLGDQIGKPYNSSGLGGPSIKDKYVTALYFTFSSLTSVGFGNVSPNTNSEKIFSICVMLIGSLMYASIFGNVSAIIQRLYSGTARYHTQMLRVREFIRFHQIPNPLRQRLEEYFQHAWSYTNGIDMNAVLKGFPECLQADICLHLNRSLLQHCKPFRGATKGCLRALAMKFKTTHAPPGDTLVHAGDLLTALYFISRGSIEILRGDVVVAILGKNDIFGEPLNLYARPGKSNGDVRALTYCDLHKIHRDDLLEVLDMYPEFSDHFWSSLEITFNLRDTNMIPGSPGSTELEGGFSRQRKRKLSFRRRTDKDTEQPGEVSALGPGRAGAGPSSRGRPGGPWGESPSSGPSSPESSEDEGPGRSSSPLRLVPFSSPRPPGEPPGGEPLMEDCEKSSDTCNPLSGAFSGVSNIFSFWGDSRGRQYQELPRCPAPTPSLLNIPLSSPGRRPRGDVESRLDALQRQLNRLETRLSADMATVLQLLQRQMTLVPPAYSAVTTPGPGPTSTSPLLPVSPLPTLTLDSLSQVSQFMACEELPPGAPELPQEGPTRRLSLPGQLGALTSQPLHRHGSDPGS
Test: Inhibition of human ERG
Settings: not given

Compound	pIC50
O=c1n(CCCCN2CCN(c3cccc4sccc34)CC2)nc2ccccn12	5.52
N#Cc1ccc2nn(CCCCN3CCN(c4cccc5sccc45)CC3)c(=O)n2c1	5.98
O=c1n(CCCCN2CCN(c3cccc4sccc34)CC2)nc2c(F)cccn12	5.66

Target: T2, D(2) dopamine receptor (Homo sapiens, UniProt P14416)
T2 sequence (P14416 whole entry): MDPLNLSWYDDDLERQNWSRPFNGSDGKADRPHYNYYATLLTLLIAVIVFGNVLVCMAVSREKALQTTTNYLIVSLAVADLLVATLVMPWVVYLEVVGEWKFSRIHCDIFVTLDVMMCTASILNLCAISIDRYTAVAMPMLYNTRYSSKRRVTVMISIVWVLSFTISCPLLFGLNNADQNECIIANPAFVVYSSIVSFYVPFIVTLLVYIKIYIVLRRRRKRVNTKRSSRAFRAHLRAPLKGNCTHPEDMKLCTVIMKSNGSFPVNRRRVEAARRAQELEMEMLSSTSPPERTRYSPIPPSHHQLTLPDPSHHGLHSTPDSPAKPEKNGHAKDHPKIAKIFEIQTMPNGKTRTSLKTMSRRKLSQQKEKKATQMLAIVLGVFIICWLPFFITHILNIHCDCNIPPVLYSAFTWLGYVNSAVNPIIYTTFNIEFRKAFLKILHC
Test: Agonist activity at D2 receptor (unknown origin) relative to 10 uM dopamine
Settings: not given

Compound	Emax [%]
O=c1ccc2ccc(OCCCCN3CCN(c4cccc5sccc45)CC3)cc2[nH]1 [BREXPIPRAZOLE]	29
O=c1n(CCCN2CCN(c3cccc(Cl)c3)CC2)nc2ccccn12 [TRAZODONE]	< 20
Cc1nc2n(c(=O)c1CCN1CCC(c3noc4cc(F)ccc34)CC1)CCCC2 [RISPERIDONE]	< 20

Tested on: not listed separately
Test: Cytotoxicity against human Chang cells assessed as reduction in cell viability
Format: cell-based
Settings: not given

Compound	IC50 [µg/mL]
O=c1ccc2ccc(OCCCCN3CCN(c4cccc5sccc45)CC3)cc2[nH]1 [BREXPIPRAZOLE]	44.2 (≈ 102 µM)
Cc1nc2n(c(=O)c1CCN1CCC(c3noc4cc(F)ccc34)CC1)CCCC2 [RISPERIDONE]	239 (≈ 582 µM)

Tested on: Mus musculus
Test: Antipsychotic activity in po dosed mouse assessed as inhibition of phencyclidine-induced hyperlocomotion administered with compound after phencyclidine challenge measured for 75 mins
Format: functional, organism-based
Settings: not given

Compound	inhibition
O=c1n(CCCCN2CCN(c3cccc4sccc34)CC2)nc2ccccn12	Dose-dependent effect

Target: T2, D(2) dopamine receptor
Test: Agonist activity at D2 receptor (unknown origin)
Settings: not given

Compound	EC50
O=c1n(CCCN2CCN(c3cccc(Cl)c3)CC2)nc2ccccn12 [TRAZODONE]	Not Active
Cc1nc2n(c(=O)c1CCN1CCC(c3noc4cc(F)ccc34)CC1)CCCC2 [RISPERIDONE]	Not Active

Same assay, conditions: read-out: EC50

Compound	pEC50
O=c1ccc2ccc(OCCCCN3CCN(c4cccc5sccc45)CC3)cc2[nH]1 [BREXPIPRAZOLE]	8.20

Target: T3, 5-hydroxytryptamine receptor 2C (Homo sapiens, UniProt P28335)
T3 sequence (P28335 whole entry): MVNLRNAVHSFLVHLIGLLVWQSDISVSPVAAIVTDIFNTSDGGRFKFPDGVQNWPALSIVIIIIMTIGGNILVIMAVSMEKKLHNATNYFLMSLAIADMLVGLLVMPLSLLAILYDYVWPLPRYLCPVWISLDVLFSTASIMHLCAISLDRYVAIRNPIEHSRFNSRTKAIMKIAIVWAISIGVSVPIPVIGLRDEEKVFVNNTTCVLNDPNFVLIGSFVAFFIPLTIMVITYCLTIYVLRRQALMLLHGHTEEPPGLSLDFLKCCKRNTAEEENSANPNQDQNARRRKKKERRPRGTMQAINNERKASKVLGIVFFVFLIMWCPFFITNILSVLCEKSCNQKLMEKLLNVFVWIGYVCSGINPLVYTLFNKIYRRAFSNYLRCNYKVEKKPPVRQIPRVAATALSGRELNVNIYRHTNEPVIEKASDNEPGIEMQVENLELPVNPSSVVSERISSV
Test: Antagonist activity at 5-HT2C receptor (unknown origin)
Settings: not given

Compound	pIC50
O=c1n(CCCCN2CCN(c3cccc4sccc34)CC2)nc2ccccn12	< 5.00
N#Cc1ccc2nn(CCCCN3CCN(c4cccc5sccc45)CC3)c(=O)n2c1	5.48
O=c1n(CCCCN2CCN(c3cccc4sccc34)CC2)nc2c(F)cccn12	5.68

Target: 5-hydroxytryptamine receptor 2A (Homo sapiens, UniProt P28223)
Sequence (P28223 whole entry): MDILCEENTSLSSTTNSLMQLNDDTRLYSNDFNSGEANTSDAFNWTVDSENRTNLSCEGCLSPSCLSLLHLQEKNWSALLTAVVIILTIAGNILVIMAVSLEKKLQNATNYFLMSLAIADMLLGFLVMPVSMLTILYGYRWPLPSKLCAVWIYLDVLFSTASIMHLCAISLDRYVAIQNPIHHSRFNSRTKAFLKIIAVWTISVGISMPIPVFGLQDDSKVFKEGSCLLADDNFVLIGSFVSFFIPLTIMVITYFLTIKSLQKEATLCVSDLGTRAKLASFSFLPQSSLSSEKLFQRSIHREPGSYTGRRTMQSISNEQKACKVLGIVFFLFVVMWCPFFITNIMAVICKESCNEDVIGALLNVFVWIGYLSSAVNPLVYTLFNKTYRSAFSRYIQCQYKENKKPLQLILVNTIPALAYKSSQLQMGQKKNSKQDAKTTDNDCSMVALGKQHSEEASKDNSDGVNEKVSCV
Test: Antagonist activity at 5HT2A receptor (unknown origin) by HTRF cAMP assay
Format: functional
Settings: not given

Compound	pIC50
O=c1n(CCCCN2CCN(c3cccc4sccc34)CC2)nc2c(F)cc(F)cn12	7.57
COc1cccc2nn(CCCCN3CCN(c4cccc5sccc45)CC3)c(=O)n12	7.89
N#Cc1cccn2c(=O)n(CCCCN3CCN(c4cccc5sccc45)CC3)nc12	6.81
O=c1n(CCCCN2CCN(c3cccc4sccc34)CC2)nc2ccccn12	7.47
O=c1n(CCCCN2CCN(c3cccc4sccc34)CC2)nc2ccc(Cl)cn12	6.84
N#Cc1ccn2c(=O)n(CCCCN3CCN(c4cccc5sccc45)CC3)nc2c1	6.14
O=c1n(CCCCN2CCC(c3cc(F)cc4oncc34)CC2)nc2ccccn12	7.82
O=c1n(CCCCN2CCN(c3cccc4scnc34)CC2)nc2ccccn12	5.56
O=c1n(CCCCN2CCN(c3cccc4sccc34)CC2)nc2c(Cl)cccn12	6.43
O=c1n(CCCCN2CCN(c3cccc4sccc34)CC2)nc2c(Cl)cc(Cl)cn12	6.19
O=c1n(CCCCN2CCN(c3cccc4scnc34)CC2)nc2c(F)cccn12	7.11
COc1cccn2c(=O)n(CCCCN3CCN(c4cccc5sccc45)CC3)nc12	7.07
O=c1n(CCCCN2CCN(c3cccc4sccc34)CC2)nc2ccc(F)cn12	7.33
N#Cc1cccc2nn(CCCCN3CCN(c4cccc5sccc45)CC3)c(=O)n12	6.98
N#Cc1ccc2nn(CCCCN3CCN(c4cccc5sccc45)CC3)c(=O)n2c1	7.96
O=c1n(CCCCN2CCN(c3cccc4sccc34)CC2)nc2c(Br)cccn12	6.88
O=c1n(CCCCN2CCN(c3cccc4sc(F)cc34)CC2)nc2c(F)cccn12	5.97
O=c1n(CCCCN2CCN(c3cccc4sccc34)CC2)nc2c(F)cccn12	7.45

Tested on: Mus musculus
Test: Antipsychotic activity in ICR mouse assessed as inhibition of quipazine-induced head-twitch response at 0.3 mg/kg, po administered with compound after quipazine administration measured for 15 mins
Format: functional, organism-based
Settings: not given

Compound	inhibition
COc1cccc2nn(CCCCN3CCN(c4cccc5sccc45)CC3)c(=O)n12	Active
O=c1n(CCCCN2CCN(c3cccc4sccc34)CC2)nc2ccccn12	Active
O=C1CCc2ccc(OCCCCN3CCN(c4cccc(Cl)c4Cl)CC3)cc2N1	Active
O=c1n(CCCCN2CCN(c3cccc4sccc34)CC2)nc2c(F)cccn12	Active
